Source: patent US20240009122A1, “Small Molecule Formulation” (Dialectic Therapeutics, Inc., priority 2020, published 2024)

Assay: Solubility of Compound 1 (statement)
Assay type: physicochemical
Excerpt: While Compound 1 is an example of a small molecule with a number of polar functional groups. […] These organic polar solvents, however, are not typically pharmaceutically acceptable for use in drug formulation.

Solubility in organic polar solvents: sufficiently soluble
Solubility in water or water based solvent mixtures: not sufficiently soluble
Compound: Cc1ncsc1-c1ccc([C@H](C)NC(=O)[C@@H]2C[C@@H](O)CC2C(=O)[C@@H](NC(=O)CCCCCC(=O)N2CCN(CC[C@H](CSc3ccccc3)Nc3ccc(S(=O)(=O)NC(=O)c4ccc(N5CCN(CC6=C(c7ccc(Cl)cc7)CCC(C)(C)C6)CC5)cc4)cc3S(=O)(=O)C(F)(F)F)CC2)C(C)(C)C)cc1 (some centres unmarked) [Compound 1]
